ChEMBL document CHEMBL1129088, “Synthesis and antitumor activity of novel duocarmycin derivatives” (Bioorg Med Chem Lett, 1996)

What was measured:
[1] = system: HeLa; test: In vitro cytotoxicity against HeLaS3 cell lines.; type: functional, cell-based; conditions: Homo sapiens
[2] = system: Mus musculus; test: Compound was evaluated in vivo for the antitumor activity against murine sarcoma 180 cell lines at the specified dose 4.0 mg/kg; type: functional
[3] = system: Mus musculus; test: Compound was evaluated in vivo for the antitumor activity against murine sarcoma 180 cell lines at the specified dose 16 mg/kg; type: functional
[4] = system: Mus musculus; test: Compound was evaluated in vivo for the antitumor activity against murine sarcoma 180 cell lines at the specified dose 8.0 mg/kg; type: functional
[5] = system: Mus musculus; test: Compound was evaluated in vivo for the antitumor activity against murine sarcoma 180 cell lines at the specified dose 0.25 mg/kg; type: functional
[6] = system: Mus musculus; test: Compound was evaluated in vivo for the antitumor activity against murine sarcoma 180 cell lines at the specified dose 2.0 mg/kg; type: functional
[7] = system: Mus musculus; test: Compound was evaluated in vivo for the antitumor activity against murine sarcoma 180 cell lines at the specified dose 0.5 mg/kg; type: functional
[8] = system: Mus musculus; test: Compound was evaluated in vivo for the antitumor activity against murine sarcoma 180 cell lines at the specified dose 1.0 mg/kg; type: functional
[9] = system: Mus musculus; test: Compound was evaluated in vivo for the antitumor activity against murine sarcoma 180 cell lines at the specified dose 1 mg/kg; type: functional

Compound	IC50 [1]	T/C [2]	T/C [3]	T/C [4]	T/C [5]	T/C [6]	T/C [7]	T/C [8]	T/C [9]
CNc1ccc(/C=C/C(=O)N2C[C@@H](CBr)c3c2cc(OC(=O)N(C)C)c2c3C(=O)[C@](C)(C(=O)OC)N2)cc1	720 nM	0.18	0.055	0.1	–	–	–	–	–
COC(=O)[C@]1(C)Nc2c(O)cc3c(c2C1=O)[C@H](CBr)CN3C(=O)c1cc2cc(OC)c(OC)c(OC)c2[nH]1	0.028 nM	–	–	–	0.024	–	–	–	–
COC(=O)[C@]1(C)Nc2c(OC(=O)N(C)C)cc3c(c2C1=O)[C@H](CBr)CN3C(=O)/C=C/c1ccc(OC)cc1	510 nM	0.19	0.057	0.14	–	–	–	–	–
COC(=O)Nc1ccc2[nH]c(C(=O)N3C[C@@H](CBr)c4c3cc(OC(=O)N(C)C)c3c4C(=O)[C@](C)(C(=O)OC)N3)cc2c1	584 nM	0.13	–	–	–	0.31	–	–	–
COC(=O)[C@]1(C)Nc2c(OC(=O)N(C)C)cc3c(c2C1=O)[C@H](CBr)CN3C(=O)c1cc2cc(OC)ccc2o1	400 nM	–	–	–	–	–	0.26	0.13	–
COC(=O)[C@@]1(C)C(=O)c2c3c(cc(O)c2N1C(=O)N(C)C)N(C(=O)c1cc2cc(OC)c(OC)c(OC)c2[nH]1)C[C@H]3CBr	56 nM	–	–	–	0.31	–	0.13	–	0.087
COC(=O)[C@]1(C)Nc2c(OC(=O)N(C)C)cc3c(c2C1=O)[C@H](CBr)CN3C(=O)COc1ccc(OC)cc1	98 nM	0.24	0.076	0.16	–	–	–	–	–
